Assay results published in patent US10526581B2, “Modulation of cardiac stem-progenitor cell differentiation, assays and uses thereof” (priority 2013, dated 2020).

Legend:
adult rat myocardium [1] = test: diffuse myocardial damage by single ISO injection in rats: eCSC activation; assay type: in vivo
Source text: Adult c-kit^poseCSCs are scattered throughout the myocardium with higher density within the atria and the ventricular apex (10). When the apical myocardium is severely injured by catecholamine overdrives, induced through Isoproterenol bolus injection, c-kit^poseCSCs are rapidly activated and respond to damage by increasing their number (16) and differentiate into cardiomyocyte lineage (Unpublished data). The same growth response by these cells is detectable in the ischemic myocardium (17) as well as in hearts with pathologic or physiological overload (18,19). During embryonic life, a progressive process of cell specification or commitment, precisely regulated in space and time, determine cardiac muscle cell creation from cardiac progenitor cells (20). In the latter phenomenon, “cell-autonomous” decisions (intrinsic to a cell) are accompanied by “cell-non-autonomous” events, which entail extracellular cardiomyogenic instructive molecules known as morphogens or cardiopoietic growth factors (cGFs) (8,9). […] The mRNA levels for different cGFs and their detection by immunohistochemistry correlated with the levels of the corresponding protein (FIG. 4).
Diffuse myocardial damage was induced by a single injection (s.c.) of isoproterenol (ISO) to rats (5 mg kg^−1) or mice (200 mg kg^−1). […] Mer-CreMer mice were kindly provided by Drs. Tammie Bishop and Ludwig Thierfelder (see below). ZEG and RYP mice were purchased at Jackson Laboratory.
To follow c-kit^poseCSC physiological response to cardiac injury, we induced severe diffuse myocardial damage in adult rats with a single high dose of isoproterenol (ISO) (Ellison et al., 2007b). New cell formation was monitored with BrdU labeling in vivo (Waring et al., 2012). In the presence of a patent coronary circulation, ISO produces a Takotsubo-like cardiomyopathy (Akashi et al., 2008) with both diffuse sub-endocardial and apical CM death. This acute insult kills 8-10% of the LV CMs and results in overt acute heart failure (Ellison et al., 2007b). […] While in the normal myocardium (CTRL) most c-kit^poseCSCs are quiescent (>90% BrdU^neg and Ki67^neg), after ISO damage a high fraction enters the cell cycle (FIG. 14A-C and FIG. 21). At day 3, ˜88% are BrdU^pos (FIG. 14C), leading to an ˜8-fold increase in eCSC number, which decreases thereafter but remains above CTRL for up to 28 days (FIG. 14A).
The expansion of the eCSC pool in response to CM loss by ISO damage was followed by their commitment to myocardial cell lineages. […]

[2] = system: rats with ISO+5-FU cardiomyopathy; test: hemodynamic measurements (LV catheterization) after tail vein cell injection in ISO+5-FU cardiomyopathy; assay type: in vivo, rat; conditions: (84 d) 3 months
adult rat myocardium [3] = conditions: single high dose of ISO; cited from earlier work

CC(C)NCC(O)c1ccc(O)c(O)c1 (stereo not drawn) [ISO, isoproterenol]
expression of cardiopoietic growth factors in the myocardium (adult rat myocardium [1]; after ISO injection): significantly increased expression
increase of c-kit^posNkx2.5^posGATA4^pos cells over CTRL (adult rat myocardium [1]; by day 3 after ISO): ~4 fold
BrdU^pos c-kit^pos eCSCs (adult rat myocardium [1]; day 3 after ISO): ~88%
increase in eCSC number (adult rat myocardium [1]; day 3 after ISO): ~8 fold
LVDevP [2]: 98.9 ± 10.6 mmHg
LVEDP [2]: 2.2 ± 2.3 mmHg
dP/dt+ [2]: 8344 ± 1294 mmHg/s
dP/dt− [2]: 7936 ± 1072 mmHg/s
LV CMs killed (adult rat myocardium [3]): 8-10%
